Experimental data: the kinase profiling compilation of Christmann-Franck et al. (2016)
One block for each compound: values may come before it.

Assays:
Test in all cases: Caliper, Mobility shift assay off-chip
TSSK1B (human) = TSSK1B (human) (UniProt Q9BXA7)
[1] = system: ABL1 (human), P00519 [H396P]
CLK2 (human) = CLK2 (human) (UniProt P49760)
MTOR (human) = MTOR (human) (UniProt P42345)
[2] = system: ABL1 (human), P00519 [M351T]
ULK2 (human) = ULK2 (human) (UniProt Q8IYT8)
[3] = system: KIT (human), P10721 [V654A]
[4] = system: TEK (human), Q02763 [Y897S]
GRK6 (human) = GRK6 (human) (UniProt P43250)
Sequence of GRK6 (human) (P43250 whole entry, looked up): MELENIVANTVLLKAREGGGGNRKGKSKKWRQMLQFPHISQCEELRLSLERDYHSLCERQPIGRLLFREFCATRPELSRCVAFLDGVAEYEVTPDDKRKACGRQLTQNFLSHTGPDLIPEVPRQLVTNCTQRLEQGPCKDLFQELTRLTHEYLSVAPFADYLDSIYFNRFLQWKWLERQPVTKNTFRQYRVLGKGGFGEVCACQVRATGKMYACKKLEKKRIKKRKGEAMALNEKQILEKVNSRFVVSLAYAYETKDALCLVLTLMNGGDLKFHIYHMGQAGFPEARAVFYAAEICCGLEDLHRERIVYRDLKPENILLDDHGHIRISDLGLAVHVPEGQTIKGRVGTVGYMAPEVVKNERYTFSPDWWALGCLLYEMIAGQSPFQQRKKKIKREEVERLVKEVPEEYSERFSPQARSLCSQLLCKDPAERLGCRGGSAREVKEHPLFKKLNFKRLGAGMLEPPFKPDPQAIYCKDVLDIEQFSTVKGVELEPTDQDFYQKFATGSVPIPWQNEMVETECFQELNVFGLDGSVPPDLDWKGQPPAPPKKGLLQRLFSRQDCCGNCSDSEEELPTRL

MKNK2 (human) = MKNK2 (human) (UniProt Q9HBH9)
EPHA8 (human) = EPHA8 (human) (UniProt P29322)
Sequence of EPHA8 (human) (P29322 whole entry, looked up): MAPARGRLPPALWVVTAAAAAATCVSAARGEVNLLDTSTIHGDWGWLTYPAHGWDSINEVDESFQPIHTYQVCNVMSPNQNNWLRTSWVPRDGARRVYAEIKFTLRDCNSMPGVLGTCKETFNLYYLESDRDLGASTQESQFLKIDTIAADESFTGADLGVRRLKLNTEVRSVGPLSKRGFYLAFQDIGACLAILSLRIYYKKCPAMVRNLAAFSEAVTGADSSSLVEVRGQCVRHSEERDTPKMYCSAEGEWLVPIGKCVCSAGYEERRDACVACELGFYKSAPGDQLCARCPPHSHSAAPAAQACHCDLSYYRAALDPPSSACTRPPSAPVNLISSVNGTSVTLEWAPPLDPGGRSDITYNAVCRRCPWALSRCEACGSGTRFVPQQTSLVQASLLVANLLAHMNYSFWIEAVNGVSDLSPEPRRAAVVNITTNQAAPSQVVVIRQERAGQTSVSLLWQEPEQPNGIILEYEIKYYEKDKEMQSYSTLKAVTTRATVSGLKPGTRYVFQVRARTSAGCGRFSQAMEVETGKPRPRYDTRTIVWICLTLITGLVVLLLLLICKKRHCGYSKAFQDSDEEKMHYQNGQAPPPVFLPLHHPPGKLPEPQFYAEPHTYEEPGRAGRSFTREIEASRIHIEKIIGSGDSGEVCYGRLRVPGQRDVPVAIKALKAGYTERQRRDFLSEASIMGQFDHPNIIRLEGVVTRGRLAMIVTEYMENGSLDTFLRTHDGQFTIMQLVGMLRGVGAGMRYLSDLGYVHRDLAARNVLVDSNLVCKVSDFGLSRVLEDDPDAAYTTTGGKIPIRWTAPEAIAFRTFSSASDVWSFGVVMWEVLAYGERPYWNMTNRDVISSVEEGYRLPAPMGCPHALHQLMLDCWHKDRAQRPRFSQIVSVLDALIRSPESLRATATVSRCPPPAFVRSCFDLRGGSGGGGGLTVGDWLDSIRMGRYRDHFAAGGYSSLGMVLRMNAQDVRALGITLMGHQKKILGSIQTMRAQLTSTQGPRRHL

DAPK3 (human) = DAPK3 (human) (UniProt O43293)
Sequence of DAPK3 (human) (O43293 whole entry, looked up): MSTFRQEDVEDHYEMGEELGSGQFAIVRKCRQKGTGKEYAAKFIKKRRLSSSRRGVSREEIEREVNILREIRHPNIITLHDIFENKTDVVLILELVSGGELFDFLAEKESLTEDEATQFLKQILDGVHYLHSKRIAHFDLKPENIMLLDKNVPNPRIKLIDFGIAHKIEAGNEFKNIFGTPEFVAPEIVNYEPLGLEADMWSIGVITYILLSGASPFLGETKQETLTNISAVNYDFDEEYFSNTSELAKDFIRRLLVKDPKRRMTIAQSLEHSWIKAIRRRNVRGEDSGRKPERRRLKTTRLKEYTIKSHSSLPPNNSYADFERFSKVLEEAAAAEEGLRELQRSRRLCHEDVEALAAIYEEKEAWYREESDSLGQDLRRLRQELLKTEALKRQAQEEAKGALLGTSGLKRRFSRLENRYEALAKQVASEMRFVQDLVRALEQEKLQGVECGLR

MINK1 (human) = MINK1 (human) (UniProt Q8N4C8)
LIMK1 (human) = LIMK1 (human) (UniProt P53667)
PLK1 (human) = PLK1 (human) (UniProt P53350)
STK3 (human) = STK3 (human) (UniProt Q13188)
[5] = system: ABL1 (human), P00519 [Q252H]
JAK3 JH1 JH2 (human) = JAK3 JH1 JH2 (human) (UniProt P52333)
MAP2K1 (human) = MAP2K1 (human) (UniProt Q02750)
[6] = system: SRC (human), P12931 [T341M]
ULK3 (human) = ULK3 (human) (UniProt Q6PHR2)
[7] = system: RET (human), P07949 [V804L]
TLK2 (human) = TLK2 (human) (UniProt Q86UE8)
Sequence of TLK2 (human) (Q86UE8 whole entry, looked up): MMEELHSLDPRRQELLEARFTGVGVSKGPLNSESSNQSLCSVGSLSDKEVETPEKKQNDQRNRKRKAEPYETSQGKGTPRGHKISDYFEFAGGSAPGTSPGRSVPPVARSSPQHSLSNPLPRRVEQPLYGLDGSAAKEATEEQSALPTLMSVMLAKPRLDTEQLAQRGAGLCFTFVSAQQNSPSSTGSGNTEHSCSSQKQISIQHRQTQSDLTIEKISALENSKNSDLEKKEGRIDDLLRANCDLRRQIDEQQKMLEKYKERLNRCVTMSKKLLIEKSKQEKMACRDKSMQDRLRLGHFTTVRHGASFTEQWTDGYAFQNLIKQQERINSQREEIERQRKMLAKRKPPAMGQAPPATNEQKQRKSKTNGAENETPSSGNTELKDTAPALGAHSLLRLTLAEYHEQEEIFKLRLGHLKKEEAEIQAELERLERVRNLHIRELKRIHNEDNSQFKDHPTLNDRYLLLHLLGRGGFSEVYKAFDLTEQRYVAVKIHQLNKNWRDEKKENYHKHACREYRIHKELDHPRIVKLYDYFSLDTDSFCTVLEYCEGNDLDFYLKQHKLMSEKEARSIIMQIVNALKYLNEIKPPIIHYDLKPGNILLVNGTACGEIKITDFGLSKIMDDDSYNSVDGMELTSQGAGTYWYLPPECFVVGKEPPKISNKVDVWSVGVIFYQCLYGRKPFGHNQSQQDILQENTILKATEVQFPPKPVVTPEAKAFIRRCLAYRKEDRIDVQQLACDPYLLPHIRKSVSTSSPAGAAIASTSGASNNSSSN

CDK6 CCND3 (human) = CDK6 CCND3 (human) (UniProt Q00534+P30281)
Sequence of CDK6 CCND3 (human) (P30281 whole entry, looked up): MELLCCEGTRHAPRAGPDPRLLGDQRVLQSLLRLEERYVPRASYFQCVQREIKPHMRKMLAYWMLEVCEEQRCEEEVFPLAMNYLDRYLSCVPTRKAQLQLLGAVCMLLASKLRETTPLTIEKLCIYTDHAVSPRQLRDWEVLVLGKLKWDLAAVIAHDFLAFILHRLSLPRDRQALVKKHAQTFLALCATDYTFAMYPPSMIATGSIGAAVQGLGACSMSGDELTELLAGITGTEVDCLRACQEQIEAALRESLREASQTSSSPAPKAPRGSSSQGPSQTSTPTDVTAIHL
Sequence of CDK6 CCND3 (human) (Q00534 whole entry, looked up): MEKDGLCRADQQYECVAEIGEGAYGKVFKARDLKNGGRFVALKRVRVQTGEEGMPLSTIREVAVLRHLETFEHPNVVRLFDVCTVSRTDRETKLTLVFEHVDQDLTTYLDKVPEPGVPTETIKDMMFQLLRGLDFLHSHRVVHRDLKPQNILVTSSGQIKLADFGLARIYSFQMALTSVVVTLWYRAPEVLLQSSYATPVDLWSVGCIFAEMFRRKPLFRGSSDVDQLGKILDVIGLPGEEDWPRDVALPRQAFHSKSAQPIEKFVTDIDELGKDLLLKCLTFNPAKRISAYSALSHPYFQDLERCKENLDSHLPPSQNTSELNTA

[8] = system: TEK (human), Q02763 [R849W]
MTOR FKBP1A (human) = MTOR FKBP1A (human) (UniProt P42345+P62942)
Sequence of MTOR FKBP1A (human) (P62942 whole entry, looked up, other chains not shown): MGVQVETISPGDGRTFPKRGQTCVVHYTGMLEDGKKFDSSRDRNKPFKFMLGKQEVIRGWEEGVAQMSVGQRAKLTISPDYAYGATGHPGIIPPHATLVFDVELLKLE

ROCK2 (human) = ROCK2 (human) (UniProt O75116)
PRKCH (human) = PRKCH (human) (UniProt P24723)
[9] = system: CHEK2 (human), O96017 [R145W]
MAPK1 (human) = MAPK1 (human) (UniProt P28482)
Sequence of MAPK1 (human) (P28482 whole entry, looked up): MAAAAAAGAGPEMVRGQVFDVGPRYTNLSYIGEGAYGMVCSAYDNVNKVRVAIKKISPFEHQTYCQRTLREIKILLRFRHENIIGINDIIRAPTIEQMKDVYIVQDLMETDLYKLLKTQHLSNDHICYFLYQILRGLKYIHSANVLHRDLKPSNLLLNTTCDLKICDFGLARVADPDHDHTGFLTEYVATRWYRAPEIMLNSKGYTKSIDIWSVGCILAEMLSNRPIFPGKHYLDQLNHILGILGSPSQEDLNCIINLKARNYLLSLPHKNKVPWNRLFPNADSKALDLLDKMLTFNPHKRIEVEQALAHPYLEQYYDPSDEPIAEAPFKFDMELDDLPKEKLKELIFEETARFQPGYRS

PTK6 (human) = PTK6 (human) (UniProt Q13882)
[10] = system: EGFR (human), P00533 [T790M]
DAPK1 (human) = DAPK1 (human) (UniProt P53355)
EPHA5 (human) = EPHA5 (human) (UniProt P54756)
Sequence of EPHA5 (human) (P54756 whole entry, looked up): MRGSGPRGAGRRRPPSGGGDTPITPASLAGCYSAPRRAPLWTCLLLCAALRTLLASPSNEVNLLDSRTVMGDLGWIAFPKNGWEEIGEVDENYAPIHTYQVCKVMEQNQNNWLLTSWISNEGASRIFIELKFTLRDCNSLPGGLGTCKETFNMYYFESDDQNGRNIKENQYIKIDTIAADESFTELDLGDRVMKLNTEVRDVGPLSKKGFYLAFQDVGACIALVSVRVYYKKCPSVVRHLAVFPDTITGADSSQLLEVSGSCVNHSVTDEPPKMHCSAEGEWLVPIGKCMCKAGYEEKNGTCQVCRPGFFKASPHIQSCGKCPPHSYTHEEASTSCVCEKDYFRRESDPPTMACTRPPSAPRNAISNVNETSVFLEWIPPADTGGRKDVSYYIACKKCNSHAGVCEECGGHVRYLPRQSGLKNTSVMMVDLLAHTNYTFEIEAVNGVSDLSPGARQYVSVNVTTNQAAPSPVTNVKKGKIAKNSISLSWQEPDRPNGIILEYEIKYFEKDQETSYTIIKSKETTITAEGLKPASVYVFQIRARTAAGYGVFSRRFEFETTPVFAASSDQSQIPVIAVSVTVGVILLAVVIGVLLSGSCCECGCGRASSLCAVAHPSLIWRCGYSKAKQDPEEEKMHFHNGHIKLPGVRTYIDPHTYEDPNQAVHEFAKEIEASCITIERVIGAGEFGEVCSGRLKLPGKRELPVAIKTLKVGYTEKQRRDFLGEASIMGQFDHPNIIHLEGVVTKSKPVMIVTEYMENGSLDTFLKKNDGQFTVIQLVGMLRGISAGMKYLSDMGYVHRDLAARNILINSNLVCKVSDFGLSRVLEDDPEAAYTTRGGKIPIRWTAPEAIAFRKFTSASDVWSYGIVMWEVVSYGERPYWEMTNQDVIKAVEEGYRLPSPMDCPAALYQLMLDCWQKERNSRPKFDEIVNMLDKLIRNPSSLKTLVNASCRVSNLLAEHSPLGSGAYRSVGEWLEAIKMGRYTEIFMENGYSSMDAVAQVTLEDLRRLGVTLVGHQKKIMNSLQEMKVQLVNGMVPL

CAMK1 (human) = CAMK1 (human) (UniProt Q14012)
CSNK1G2 (human) = CSNK1G2 (human) (UniProt P78368)
RPS6KA1 KD1 KD2 (rat) = settings: accession and sequence are those of the human protein
BLK (mouse) = settings: accession and sequence are those of the human protein
PRKACA (cow) = settings: accession and sequence are those of the human protein
MAPK1 (mouse) = settings: accession and sequence are those of the human protein
ROCK2 (rat) = settings: accession and sequence are those of the human protein

residual activity (TSSK1B (human); compound 1.0 µM): 75%
residual activity ([1]; compound 1.0 µM): 49%
residual activity (CLK2 (human); compound 1.0 µM): 67%
residual activity (MTOR (human); compound 1.0 µM): 89%
residual activity ([2]; compound 1.0 µM): 50%
residual activity (ULK2 (human); compound 1.0 µM): 30%
residual activity ([3]; compound 1.0 µM): 46%
residual activity ([4]; compound 1.0 µM): 82%
residual activity (GRK6 (human); compound 1.0 µM): 101%
residual activity (MKNK2 (human); compound 1.0 µM): 30%
residual activity (EPHA8 (human); compound 1.0 µM): 108%
residual activity (DAPK3 (human); compound 1.0 µM): 57%
residual activity (MINK1 (human); compound 1.0 µM): 117%
residual activity (LIMK1 (human); compound 1.0 µM): 67%
residual activity (PLK1 (human); compound 1.0 µM): 81%
residual activity (STK3 (human); compound 1.0 µM): 60%
residual activity ([5]; compound 1.0 µM): 54%
residual activity (JAK3 JH1 JH2 (human); compound 1.0 µM): 56%
residual activity (MAP2K1 (human); compound 1.0 µM): 96%
residual activity ([6]; compound 1.0 µM): 55%
residual activity (ULK3 (human); compound 1.0 µM): 47%
residual activity ([7]; compound 1.0 µM): 2%
residual activity (TLK2 (human); compound 1.0 µM): 80%
residual activity (CDK6 CCND3 (human); compound 1.0 µM): 102%
residual activity ([8]; compound 1.0 µM): 74%
residual activity (MTOR FKBP1A (human); compound 1.0 µM): 94%
residual activity (ROCK2 (human); compound 1.0 µM): 29%
residual activity (PRKCH (human); compound 1.0 µM): 109%
residual activity ([9]; compound 1.0 µM): 12%
residual activity (MAPK1 (human); compound 1.0 µM): 99%
residual activity (PTK6 (human); compound 1.0 µM): 105%
residual activity ([10]; compound 1.0 µM): 36%
residual activity (DAPK1 (human); compound 1.0 µM): 82%
residual activity (EPHA5 (human); compound 1.0 µM): 109%
residual activity (CAMK1 (human); compound 1.0 µM): 63%
residual activity (CSNK1G2 (human); compound 1.0 µM): 101%
Structure (SMILES): C[C@@H](Nc1nc2c(C#CC3CC3)c[nH]c(=O)c2c2cc(-c3cn[nH]c3)ccc12)C(C)(C)C

residual activity (TSSK1B (human); compound 1.0 µM): 24%
residual activity (RPS6KA1 KD1 KD2 (rat); compound 1.0 µM): 6%
residual activity (BLK (mouse); compound 1.0 µM): 92%
residual activity (MKNK2 (human); compound 1.0 µM): 86%
residual activity (DAPK3 (human); compound 1.0 µM): 43%
residual activity (MINK1 (human); compound 1.0 µM): 134%
residual activity (LIMK1 (human); compound 1.0 µM): 120%
residual activity (STK3 (human); compound 1.0 µM): 69%
residual activity (JAK3 JH1 JH2 (human); compound 1.0 µM): 100%
residual activity (MAP2K1 (human); compound 1.0 µM): 97%
residual activity (CDK6 CCND3 (human); compound 1.0 µM): 106%
residual activity (PRKACA (cow); compound 1.0 µM): 81%
residual activity (ROCK2 (human); compound 1.0 µM): 87%
residual activity (PRKCH (human); compound 1.0 µM): 95%
residual activity (PTK6 (human); compound 1.0 µM): 93%
residual activity (MAPK1 (mouse); compound 1.0 µM): 90%
residual activity (ROCK2 (rat); compound 1.0 µM): 88%
residual activity (EPHA5 (human); compound 1.0 µM): 94%
residual activity (CAMK1 (human); compound 1.0 µM): 45%
Structure (SMILES): Cc1n[nH]c2c1c(=O)n(CCCN)c1ccc(Cl)cc21

Structure (SMILES): O=C(N[C@@H](COc1ccc2[nH]c(=O)[nH]c2c1)c1ccccc1)c1cccn(Cc2ccc(F)c(F)c2)c1=O
residual activity (TSSK1B (human); compound 10.0 µM): 100%
residual activity ([1]; compound 10.0 µM): 114%
residual activity (CLK2 (human); compound 10.0 µM): 100%
residual activity (MTOR (human); compound 10.0 µM): 102%
residual activity ([2]; compound 10.0 µM): 110%
residual activity (BLK (mouse); compound 10.0 µM): 94%
residual activity (ULK2 (human); compound 10.0 µM): 110%
residual activity ([3]; compound 10.0 µM): 102%
residual activity ([4]; compound 10.0 µM): 111%
residual activity (GRK6 (human); compound 10.0 µM): 108%
residual activity (MKNK2 (human); compound 10.0 µM): 101%
residual activity (EPHA8 (human); compound 10.0 µM): 107%
residual activity (DAPK3 (human); compound 10.0 µM): 121%
residual activity (MINK1 (human); compound 10.0 µM): 113%
residual activity (LIMK1 (human); compound 10.0 µM): 97%
residual activity (PLK1 (human); compound 10.0 µM): 116%
residual activity (STK3 (human); compound 10.0 µM): 101%
residual activity ([5]; compound 10.0 µM): 69%
residual activity (JAK3 JH1 JH2 (human); compound 10.0 µM): 98%
residual activity (MAP2K1 (human); compound 10.0 µM): 102%
residual activity ([6]; compound 10.0 µM): 102%
residual activity (ULK3 (human); compound 10.0 µM): 99%
residual activity ([7]; compound 10.0 µM): 112%
residual activity (TLK2 (human); compound 10.0 µM): 100%
residual activity (CDK6 CCND3 (human); compound 10.0 µM): 102%
residual activity ([8]; compound 10.0 µM): 104%
residual activity (MTOR FKBP1A (human); compound 10.0 µM): 103%
residual activity (ROCK2 (human); compound 10.0 µM): 109%
residual activity (PRKCH (human); compound 10.0 µM): 96%
residual activity ([9]; compound 10.0 µM): 96%
residual activity (MAPK1 (human); compound 10.0 µM): 89%
residual activity (PTK6 (human); compound 10.0 µM): 116%
residual activity ([10]; compound 10.0 µM): 107%
residual activity (DAPK1 (human); compound 10.0 µM): 113%
residual activity (EPHA5 (human); compound 10.0 µM): 99%
residual activity (CAMK1 (human); compound 10.0 µM): 96%
residual activity (CSNK1G2 (human); compound 10.0 µM): 97%

residual activity (RPS6KA1 KD1 KD2 (rat); compound 10.0 µM): 10%
residual activity (PRKACA (cow); compound 10.0 µM): 45%
residual activity (MAPK1 (human); compound 10.0 µM): 33%
residual activity (MAPK1 (mouse); compound 10.0 µM): 11%
residual activity (ROCK2 (rat); compound 10.0 µM): 21%
Structure (SMILES): CC(C)(C)c1nc2c3ccc(F)cc3c3c(=O)[nH]ccc3c2[nH]1

residual activity (TSSK1B (human); compound 1.0 µM): 99%
residual activity ([3]; compound 1.0 µM): 73%
residual activity (GRK6 (human); compound 1.0 µM): 100%
residual activity (MKNK2 (human); compound 1.0 µM): 121%
residual activity (EPHA8 (human); compound 1.0 µM): 106%
residual activity (DAPK3 (human); compound 1.0 µM): 102%
residual activity (MINK1 (human); compound 1.0 µM): 97%
residual activity (LIMK1 (human); compound 1.0 µM): 34%
residual activity (STK3 (human); compound 1.0 µM): 119%
residual activity (JAK3 JH1 JH2 (human); compound 1.0 µM): 2%
residual activity (MAP2K1 (human); compound 1.0 µM): 79%
residual activity (TLK2 (human); compound 1.0 µM): 91%
residual activity (CDK6 CCND3 (human); compound 1.0 µM): 86%
residual activity (ROCK2 (human); compound 1.0 µM): 59%
residual activity (PRKCH (human); compound 1.0 µM): 95%
residual activity ([9]; compound 1.0 µM): 73%
residual activity (MAPK1 (human); compound 1.0 µM): 104%
residual activity (PTK6 (human); compound 1.0 µM): 97%
residual activity ([10]; compound 1.0 µM): 82%
residual activity (DAPK1 (human); compound 1.0 µM): 91%
residual activity (EPHA5 (human); compound 1.0 µM): 89%
residual activity (CAMK1 (human); compound 1.0 µM): 97%
residual activity (CSNK1G2 (human); compound 1.0 µM): 89%
Structure (SMILES): O=C(NCCCNc1nc(Nc2cccc(NC(=O)N3CCCC3)c2)ncc1I)c1cccs1

residual activity (TSSK1B (human); compound 10.0 µM): 99%
residual activity ([3]; compound 10.0 µM): 34%
residual activity (GRK6 (human); compound 10.0 µM): 108%
residual activity (MKNK2 (human); compound 10.0 µM): 120%
residual activity (EPHA8 (human); compound 10.0 µM): 91%
residual activity (DAPK3 (human); compound 10.0 µM): 34%
residual activity (MINK1 (human); compound 10.0 µM): 23%
residual activity (LIMK1 (human); compound 10.0 µM): 38%
residual activity (STK3 (human); compound 10.0 µM): 104%
residual activity (JAK3 JH1 JH2 (human); compound 10.0 µM): 55%
residual activity (MAP2K1 (human); compound 10.0 µM): 43%
residual activity (TLK2 (human); compound 10.0 µM): 106%
residual activity (CDK6 CCND3 (human); compound 10.0 µM): 103%
residual activity (ROCK2 (human); compound 10.0 µM): 67%
residual activity (PRKCH (human); compound 10.0 µM): 95%
residual activity ([9]; compound 10.0 µM): 1%
residual activity (MAPK1 (human); compound 10.0 µM): 133%
residual activity (PTK6 (human); compound 10.0 µM): 81%
residual activity ([10]; compound 10.0 µM): 65%
residual activity (DAPK1 (human); compound 10.0 µM): 50%
residual activity (EPHA5 (human); compound 10.0 µM): 90%
residual activity (CAMK1 (human); compound 10.0 µM): 9%
residual activity (CSNK1G2 (human); compound 10.0 µM): 39%
Structure (SMILES): COc1ccc(C#Cc2ccc3ncc4ncn(-c5ccc(CCN)cc5)c4c3c2)cc1
